Measured values: patent US20240109900A1, “AZABICYCLIC SHP2 INHIBITORS” (IRBM S.P.A., priority 2021, published 2024)
Like-named read-outs stand apart in the source and are kept apart here.

Columns and labels:
[1] = tested on: ERK phosphorylation in KYSE-520 cells; assay: Phospho-ERK cellular assay; format: cell-based; conditions: KYSE-520 cells, 2 h at 37° C., phospho-ERK1/2 (Thr202/Tyr204) TR-FRET, read-out: PERK IC50
Method in brief: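 TR-FRET read-out of ERK1/2 Thr202/Tyr204 phosphorylation was taken after overnight antibody incubation at room temperature. Before that, KYSE-520 cells were treated 2 h at 37 °C with compound dilutions and lysed 30 min. Percent inhibition relative to vehicle and cell-free wells was fitted four-parametrically to give IC50.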

[2] = target: SHP-2 enzyme (Met1-Leu525) (Homo sapiens (Human), UniProt Q06124); assay: SHP2 inhibition enzymatic assay; format: biochemical; conditions: read-out: SHP2wt-IC50
Method in brief: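 Compounds were preincubated 30 min with 0.5 nM SHP-2 (Met1-Leu525) plus 500 nM IRS1 activating peptide (pH 7.2 HEPES, 5 mM DTT), then 75 μM DiFMUP substrate reacted 30 min at room temperature. After bpV quench, DiFMUP fluorescence gave % inhibition; four-parameter logistic fit yielded IC50.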

[3] = 0.5 nM SHP-2 activated by 500 nM IRS1 peptide, 75 μM DiFMUP substrate

SHP-2 enzyme (Met1-Leu525), sequence (Q06124 1-525): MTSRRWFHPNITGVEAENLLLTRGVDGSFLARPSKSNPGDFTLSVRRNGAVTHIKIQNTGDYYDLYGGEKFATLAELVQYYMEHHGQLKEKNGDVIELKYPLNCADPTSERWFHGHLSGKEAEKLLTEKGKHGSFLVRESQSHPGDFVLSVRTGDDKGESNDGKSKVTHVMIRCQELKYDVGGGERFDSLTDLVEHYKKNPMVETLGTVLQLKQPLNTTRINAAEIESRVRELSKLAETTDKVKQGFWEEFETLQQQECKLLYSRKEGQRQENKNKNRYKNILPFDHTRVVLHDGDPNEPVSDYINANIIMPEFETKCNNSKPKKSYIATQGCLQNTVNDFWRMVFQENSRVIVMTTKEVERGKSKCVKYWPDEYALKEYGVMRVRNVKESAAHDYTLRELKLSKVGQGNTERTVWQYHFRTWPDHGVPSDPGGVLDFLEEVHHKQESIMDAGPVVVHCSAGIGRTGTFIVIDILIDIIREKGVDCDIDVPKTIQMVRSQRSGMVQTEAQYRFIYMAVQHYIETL

Row | IC50 ([1]; Homo sapiens, KYSE-520, 2 h) | IC50 [2, 3] | IC50 [1] | SMILES | IC50 ([1]; Homo sapiens) | IC50 [2]
1 | < 1000 nM | < 500 nM |  | NC[C@]1(c2ccccc2F)[C@@H]2CCN(c3cnc4c(-c5cc(F)c(O)c(F)c5)n[nH]c4n3)C[C@@H]21 [Example 322, 4-(6-((1S,6R,7R)-7-(aminomethyl)-7-(2-fluorophenyl)-3-azabicyclo[4.1.0]heptan-3-yl)-1H-pyrazolo[3,4-b]pyrazin-3-yl)-2,6-difluorophenol] |  | 
2 | < 1000 nM | < 500 nM |  | NC[C@]1(c2ccccc2F)[C@@H]2CCN(c3cnc4c(-c5cccc6c(=O)[nH]ccc56)n[nH]c4n3)C[C@@H]21 [Example 209, 5-(6-((1S,6R,7R)-7-(aminomethyl)-7-(2-fluorophenyl)-3-azabicyclo[4.1.0]heptan-3-yl)-1H-pyrazolo[3,4-b]pyrazin-3-yl)isoquinolin-1(2H)-one] |  | 
3 | < 1000 nM | < 500 nM |  | Cc1csc([C@@]2(CN)[C@@H]3CN(c4nc5[nH]cc(-c6ccc7nn(C)cc7c6Cl)c5c(=O)n4C)C[C@@H]32)n1 [Example 473, 2-((1R,5S,6r)-6-(aminomethyl)-6-(4-methylthiazol-2-yl)-3-azabicyclo[3.1.0]hexan-3-yl)-5-(4-chloro-2-methyl-2H-indazol-5-yl)-3-methyl-3,7-dihydro-4H-pyrrolo[2,3-d]pyrimidin-4-one] |  | 
4 | < 1000 nM | < 500 nM |  | NCC1(c2ccsc2)C2CCN(c3cnc4c(-c5cccc(Cl)c5Cl)n[nH]c4n3)CC21 (stereo not drawn) [Example 94, (3-(3-(2,3-dichlorophenyl)-1H-pyrazolo[3,4-b]pyrazin-6-yl)-7-(thiophen-3-yl)-3-azabicyclo [4.1.0]heptan-7-yl)methanamine] |  | 
5 | < 1000 nM | < 500 nM |  | Cn1cc2c(Cl)c(-c3n[nH]c4nc(N5C[C@@H]6[C@H](C5)[C@@]6(CN)c5ccccc5F)cnc34)ccc2n1 [Example 499, ((1R,5S,6s)-3-(3-(4-chloro-2-methyl-2H-indazol-5-yl)-1H-pyrazolo[3,4-b]pyrazin-6-yl)-6-(2-fluorophenyl)-3-azabicyclo[3.1.0]hexan-6-yl)methanamine] |  | 
6 | < 1000 nM | < 500 nM |  | Cc1cc([C@@]2(CN)[C@@H]3CCN(c4cnc5c(-c6ccc7nn(C)c(C)c7c6Cl)n[nH]c5n4)C[C@@H]32)no1 [Example 108, ((1S,6R,7S)-3-(3-(4-chloro-2,3-dimethyl-2H-indazol-5-yl)-1H-pyrazolo[3,4-b]pyrazin-6-yl)-7-(5-methylisoxazol-3-yl)-3-azabicyclo[4.1.0]heptan-7-yl)methanamine] |  | 
7 |  | < 500 nM | < 1000 nM | Cc1csc([C@@]2(CN)[C@@H]3CN(c4cnc5c(-c6ccc7nn(CC(F)(F)F)cc7c6Cl)n[nH]c5n4)C[C@@H]32)n1 [Example 518] |  | 
8 | < 1000 nM | < 500 nM |  | NC[C@]1(c2ccccc2F)[C@@H]2CCN(c3cnc(Sc4ccc5nccnc5c4Cl)c(N)n3)C[C@@H]21 [Example 523, 6-((1S,6R,7R)-7-(aminomethyl)-7-(2-fluorophenyl)-3-azabicyclo[4.1.0]heptan-3-yl)-3-((5-chloroquinoxalin-6-yl)thio)pyrazin-2-amine] |  | 
9 |  |  |  | Cc1csc(C2(CN)C3CCN(c4cnc(Sc5ccnc(N)c5Cl)c(N)n4)CC32)n1 (stereo not drawn) [Example 74, 3-((2-amino-3-chloropyridin-4-yl)thio)-6-(7-(aminomethyl)-7-(4-methylthiazol-2-yl)-3-azabicyclo[4.1.0]heptan-3-yl)pyrazin-2-amine] | 1000 to 5000 nM | < 500 nM
10 | < 1000 nM | < 500 nM |  | COc1cc(-c2n[nH]c3nc(N4CC[C@@H]5[C@H](C4)[C@@]5(CN)c4ccccc4F)cnc23)c2ccnn2c1 [Example 147, ((1S,6R,7R)-7-(2-fluorophenyl)-3-(3-(6-methoxypyrazolo[1,5-a]pyridin-4-yl)-1H-pyrazolo[3,4-b]pyrazin-6-yl)-3-azabicyclo[4.1.0]heptan-7-yl)methanamine] |  | 
11 | < 1000 nM | < 500 nM |  | Cc1cc(C2(CN)C3CCN(c4cnc5c(-c6ccc7scnc7c6)n[nH]c5n4)CC32)no1 (stereo not drawn) [Example 20, (3-(3-(benzo[d]thiazol-5-yl)-1H-pyrazolo[3,4-b]pyrazin-6-yl)-7-(5-methylisoxazol-3-yl)-3-azabicyclo[4.1.0]heptan-7-yl)methanamine] |  | 
12 | > 5000 nM | < 500 nM |  | COc1cc(-c2n[nH]c3nc(N4CC[C@@H]5[C@H](C4)[C@@]5(CN)c4ccccc4F)cnc23)cc2[nH]c(=O)[nH]c12 [Example 292, 6-(6-((1S,6R,7R)-7-(aminomethyl)-7-(2-fluorophenyl)-3-azabicyclo[4.1.0]heptan-3-yl)-1H-pyrazolo[3,4-b]pyrazin-3-yl)-4-methoxy-1,3-dihydro-2H-benzo[d]imidazol-2-one] |  | 
13 | < 1000 nM | < 500 nM |  | CN(C)c1nccc(-c2n[nH]c3nc(N4CC[C@@H]5[C@H](C4)[C@@]5(CN)c4ccccc4F)cnc23)c1Cl [Example 190, 4-(6-((1S,6R,7R)-7-(aminomethyl)-7-(2-fluorophenyl)-3-azabicyclo[4.1.0]heptan-3-yl)-1H-pyrazolo[3,4-b]pyrazin-3-yl)-3-chloro-N,N-dimethylpyridin-2-amine] |  | 
14 | < 1000 nM | < 500 nM |  | Cc1cc(C2(CN)C3CCN(c4cnc5c(-c6ccnc7ccccc67)n[nH]c5n4)CC32)no1 (stereo not drawn) [Example 27, (7-(5-methylisoxazol-3-yl)-3-(3-(quinolin-4-yl)-1H-pyrazolo[3,4-b]pyrazin-6-yl)-3-azabicyclo[4.1.0]heptan-7-yl)methanamine] |  | 
15 | > 5000 nM | < 500 nM |  | Cc1nc(N2CCC3C(C2)C3(CN)c2ccsc2)c(CO)nc1-c1cccc(Cl)c1Cl (stereo not drawn) [Example 1, [3-[7-(aminomethyl)-7-(thiophen-3-yl)-3-azabicyclo[4.1.0]heptan-3-yl]-6-(2,3-dichlorophenyl)-5-methylpyrazin-2-yl]methanol] |  | 
16 | < 1000 nM | < 500 nM |  | Cn1ccc([C@@]2(CN)[C@@H]3CN(c4cnc5c(-c6ccc7nccnc7c6Cl)n[nH]c5n4)C[C@@H]32)n1 [Example 511, ((1R,5S,6r)-3-(3-(5-chloroquinoxalin-6-yl)-1H-pyrazolo[3,4-b]pyrazin-6-yl)-6-(1-methyl-1H-pyrazol-3-yl)-3-azabicyclo[3.1.0]hexan-6-yl)methanamine] |  | 
17 | < 1000 nM | < 500 nM |  | CC(C)Oc1ccc(-c2n[nH]c3nc(N4CC[C@@H]5[C@H](C4)[C@@]5(CN)c4ccccc4F)cnc23)c2cccnc12 [Example 138, ((1S,6R,7R)-7-(2-fluorophenyl)-3-(3-(8-isopropoxyquinolin-5-yl)-1H-pyrazolo[3,4-b]pyrazin-6-yl)-3-azabicyclo[4.1.0]heptan-7-yl)methanamine] |  | 
18 | < 1000 nM | < 500 nM |  | NC[C@]1(c2ccccc2F)[C@@H]2CCN(c3cnc4c(-c5ccc(O)c(F)c5)n[nH]c4n3)C[C@@H]21 [Example 331, 4-(6-((1S,6R,7R)-7-(aminomethyl)-7-(2-fluorophenyl)-3-azabicyclo[4.1.0]heptan-3-yl)-1H-pyrazolo[3,4-b]pyrazin-3-yl)-2-fluorophenol] |  | 
19 |  | < 500 nM | < 1000 nM | Cc1csc([C@@]2(CN)[C@@H]3CN(c4cnc5c(-c6ccnc(N)c6Cl)n[nH]c5n4)C[C@@H]32)n1 [Example 517] |  | 
20 | > 5000 nM | < 500 nM |  | NC[C@]1(c2ccccc2F)[C@@H]2CCN(c3cnc4c(-c5ccc6nccc(=O)n6c5)n[nH]c4n3)C[C@@H]21 [Example 260, 7-(6-((1S,6R,7R)-7-(aminomethyl)-7-(2-fluorophenyl)-3-azabicyclo[4.1.0]heptan-3-yl)-1H-pyrazolo[3,4-b]pyrazin-3-yl)-4H-pyrido[1,2-a]pyrimidin-4-one] |  | 
21 | < 1000 nM | < 500 nM |  | Cc1cc(C(N)=O)ccc1-c1n[nH]c2nc(N3CC[C@@H]4[C@H](C3)[C@@]4(CN)c3ccccc3F)cnc12 [Example 250, 4-(6-((1S,6R,7R)-7-(aminomethyl)-7-(2-fluorophenyl)-3-azabicyclo[4.1.0]heptan-3-yl)-1H-pyrazolo[3,4-b]pyrazin-3-yl)-3-methylbenzamide] |  | 
22 | < 1000 nM | < 500 nM |  | NC[C@]1(c2c(F)cccc2F)[C@@H]2CCN(c3cnc4c(-c5cccn6nccc56)n[nH]c4n3)C[C@@H]21 [Example 116, ((1S,6R,7R)-7-(2,6-difluorophenyl)-3-(3-(pyrazolo[1,5-a]pyridin-4-yl)-1H-pyrazolo[3,4-b]pyrazin-6-yl)-3-azabicyclo[4.1.0]heptan-7-yl)methanamine] |  | 
23 | > 5000 nM | < 500 nM |  | Cn1c(N2CC[C@@H]3[C@H](C2)[C@@]3(CN)c2ccccc2F)nc2[nH]nc(-c3ccc(C(N)=O)c4ncccc34)c2c1=O [Example 343, 5-(6-((1S,6R,7R)-7-(aminomethyl)-7-(2-fluorophenyl)-3-azabicyclo[4.1.0]heptan-3-yl)-5-methyl-4-oxo-4,5-dihydro-1H-pyrazolo[3,4-d]pyrimidin-3-yl)quinoline-8-carboxamide] |  | 
24 | < 1000 nM | < 500 nM |  | Cn1cc2c(Cl)c(-c3n[nH]c4nc(N5C[C@@H]6[C@H](C5)[C@@]6(CN)c5ccccc5)cnc34)ccc2n1 [Example 453, ((1R,5S,6s)-3-(3-(4-chloro-2-methyl-2H-indazol-5-yl)-1H-pyrazolo[3,4-b]pyrazin-6-yl)-6-phenyl-3-azabicyclo[3.1.0]hexan-6-yl)methanamine] |  | 
